Test results published in ChEMBL document CHEMBL1156550, “Synthesis and pharmacological evaluation of pentacyclic 6a,7-dihydrodiindole and 2,3-dihydrodiindole derivatives as novel melatoninergic ligands” (Bioorg Med Chem, 2008).

Assays:
[1] = biological target: Melatonin receptor type 1A (Homo sapiens, UniProt P48039); assay: Displacement of 2-[125I]iodomelatonin from human melatonin MT1 receptor expressed in CHO cells; type: cell-based
[2] = biological target: T1, Melatonin receptor type 1B (Homo sapiens, UniProt P49286); assay: Displacement of 2-[125I]iodomelatonin from human melatonin MT2 receptor expressed in CHO cells; type: cell-based
T1 sequence (P49286 whole entry): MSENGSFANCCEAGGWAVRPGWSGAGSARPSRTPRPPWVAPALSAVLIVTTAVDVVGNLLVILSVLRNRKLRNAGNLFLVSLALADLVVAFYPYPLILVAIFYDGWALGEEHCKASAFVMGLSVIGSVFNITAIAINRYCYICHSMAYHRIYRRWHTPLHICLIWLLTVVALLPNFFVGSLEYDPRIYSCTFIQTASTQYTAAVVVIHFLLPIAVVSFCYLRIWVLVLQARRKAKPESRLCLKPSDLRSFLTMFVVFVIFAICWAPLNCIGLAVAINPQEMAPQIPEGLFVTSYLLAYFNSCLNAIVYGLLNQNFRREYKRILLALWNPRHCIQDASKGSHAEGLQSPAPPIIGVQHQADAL

[3] = species on record: Homo sapiens; assay: Selectivity ratio of Ki for human melatonin MT1 receptor to Ki for human melatonin MT2 receptor

Sequence of Melatonin receptor type 1A (P48039 whole entry): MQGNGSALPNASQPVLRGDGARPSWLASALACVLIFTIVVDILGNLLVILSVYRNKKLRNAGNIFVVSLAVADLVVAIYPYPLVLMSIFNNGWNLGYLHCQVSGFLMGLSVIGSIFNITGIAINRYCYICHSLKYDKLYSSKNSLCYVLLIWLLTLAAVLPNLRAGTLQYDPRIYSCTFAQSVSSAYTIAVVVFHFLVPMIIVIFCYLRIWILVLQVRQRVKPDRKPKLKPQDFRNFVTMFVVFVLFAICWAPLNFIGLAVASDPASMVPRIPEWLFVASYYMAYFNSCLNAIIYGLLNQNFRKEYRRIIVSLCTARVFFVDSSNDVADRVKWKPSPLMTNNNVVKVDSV

## COc1ccc2c(c1)CC(CO)N2Cc1[nH]c2ccc(OC)cc2c1CCNC(C)=O (racemic)
[1]
  Ki: 34.5 nM
[2]
  Ki: 33.6 nM
[3]
  Ratio Ki: 1.03

## COc1ccc2[nH]c(CN3c4ccccc4CC3CO)c(CCNC(C)=O)c2c1 (racemic)
[1]
  Ki: 17.5 nM
[2]
  Ki: 36.2 nM
[3]
  Ratio Ki: 0.48

## CC(=O)NCCc1c2n(c3ccccc13)CC1Cc3ccccc3N1C2 (stereo unspecified)
[1]
  Ki: 1000 nM
[2]
  Ki: 1700 nM

## COc1ccc2[nH]c(CN3c4ccccc4C[C@H]3CO)c(CCNC(C)=O)c2c1
[1]
  Ki: 9.8 nM
[2]
  Ki: 7.8 nM
[3]
  Ratio Ki: 1.25

## COc1ccc2c(c1)c(CCNC(C)=O)c1n2CC2Cc3ccccc3N2C1 (stereo unspecified)
[1]
  Ki: 319 nM
[2]
  Ki: 65.2 nM
[3]
  Ratio Ki: 4.89

## COc1ccc2c(c1)CC1Cn3c(c(CCNC(C)=O)c4cc(OC)ccc43)CN21 (stereo unspecified)
[1]
  Ki: 1800 nM
[2]
  Ki: 410 nM
